Laboratory results from US20210353579A1, “HIGH PENETRATION COMPOSITIONS AND USES THEREOF” (Techfields Pharma Co., Ltd., priority 2006, published 2021).
Structures can show the parent of a compound that is named as a salt.

Columns and labels:
[1] = test system: cats with ocular hypertension; assay: Intraocular pressure in cats with ocular hypertension; format: in vivo, cat; details: 30 mg/kg around the eye, 10 days
Experimental: The ability of diethylaminoethyl acetylsalicylate.HCl to reduce intraocular pressure (IOP) was evaluated in cats with ocular hypertension produced by previously done laser trabeculoplastry. IOP was determined with a pneumatonometer after light corneal anesthesia with dilute proparacaine. 14 Cats were divided into 2 groups. Baseline IOP was determined prior to treatment with the test compound aqueous solution. […] In group B, 30 mg/kg of diethylaminoethyl acetylsalicylate.HCl the area around eye (outside) of cat trice per day for 10 days.

[2] = test system: Hypertension patients; assay: Anti-hypertension effect of transdermal atenolol in patients; format: in vivo, human; details: 100 mg in 1 ml of pure water per day transdermally
Experimental: 20 Hypertension patents were divided to 2 groups. Group A is control group (n=10, 1 ml of water was administrated to the chest of patients once per day) and group B is atenolol treated group (n=10, 100 mg of atenolol HCl salt was administrated to the chest of patients once per day) (Table 32).

CCN(CC)CCOC(=O)c1ccccc1OC(C)=O.Cl [Diethylaminoethyl acetylsalicylate.HCl, diethylaminoethyl acetylsalicylate.HCl]
anti-glaucoma activity [1]: very strong anti-glaucoma activity

CC(C)NCC(O)COc1ccc(CC(N)=O)cc1 (centres unmarked) [atenolol HCl salt, reference compound]
blood pressure of hypertension patients [2]: controlled
